The test system of series [1] is survivin protein. As to the kind of experiment: IC50 of dsRNA for survivin protein, quantitative Western blot ("W"). Particulars: for IC50: W (Western blot), HeLa cells. The format is cell-based, human. How it is done: Western blot analysis (immunoblot analysis) is carried out using standard methods. Cells are harvested 16-20 hours after oligonucleotide treatment, washed once with PBS, suspended in Laemmli buffer (100 μl/well), boiled for 5 minutes and loaded on a 16% SDS-PAGE gel. Gels are run for 1.5 hours at 150 V, and transferred to membrane for western blotting. Appropriate primary antibody directed to survivin is used, with a radiolabelled or fluorescently labeled secondary antibody directed against the primary antibody species. Bands are visualized using a PHOSPHORIMAGER™ (Molecular Dynamics, Sunnyvale, Calif.).
(§1) For western blot analysis, cells are plated in 10 cm tissue culture dishes (Falcon, #3003) at a density of 7.5×10^5 cells/dish. For RT-PCR analysis, 96-well plates (Corning Incorporated, #3596) are plated with 1×10^4 cells/well. Lipofectin (GIBCO/Invitrogen) transfection reagent is used at a concentration of 3 ul/ml OPTIMEM reduced serum medium (Gibco/Invitrogen)/100 nM siRNA duplex. Lipofectin reagent is incubated with OPTIMEM medium for 30 minutes prior to the addition of siRNA. The desired amount of siRNA is added and mixed. Further 1:1 dilutions are performed in OPTIMEM. Cells are washed twice with 1× phosphate buffered saline and then treated with the siRNA/Lipofectin mixture in OPTIMEM. After a 4 hr incubation period, OPTIMEM medium is replaced with complete growth medium. Cells are harvested after additional 16-20 hrs for Western blot or RT-PCR analysis.
At the end of the incubation period culture medium is removed and cells are washed twice with PBS. Cells are lysed in RIPA buffer (20 mM Tris-HCl, pH 7.4, 5 mM EDTA, 50 mM NaCl, 10 mM Sodium Pyrophosphate, 50 mM Sodium Fluoride, and 1% Nonidet P40) plus Complete™ Mini protease inhibitor tablets (Roche, #1836153) and 1 mM Sodium orthovanadate (Sigma) by directly adding buffer to the plate. Lysates are collected by scrapping, transferred to microfuge tubes and cleared from the cellular debris by centrifugation at 14,000 rpm for 30 minutes at 4° C. Protein concentrations are determined using BCA protein assay yeagents (Pierce). Total cellular protein is subjected to SDS-PAGE and transferred onto Immobilon-P membranes (Millipore, #IPVHO91). Membranes are probed with primary antibodies to survivin (R&D Systems, #AF886) and to β-Actin (Sigma, #A5441). Horseradish peroxidase linked Anti-rabbit Ig, and anti-mouse Ig, antibodies (Pharmacia) are used as secondary antibodies. Antigen-antibody complexes are visualized by incubation of membrane in SuperSigmal West Pico chemiluminescence reagents (Pierce) for 5 minutes followed by capturing of the chemiluminescence using Fluor-S imager (Biorad) equipped with the cool CCD camera. The protein bands of interest for each sample are quantified using Quantity One software (Biorad). The percentage inhibition for each samples are calculated by comparing the survivin/Actin protein ratio for the sample to survivin/Actin protein ratio for the untreated control. The IC50 is derived from the non-linear regression analysis of the percentage inhibition data using GraphPad Prism software (GraphPad Software).
The constructs tested comprise the antisense strand in the 5′-3′ orientation, and the sense strand in the 5′ to 3′ orientation, In Table 15, “D” is dose response (mRNA levels) and “W” is Western blot. All internucleoside linkages are phosphodiester unless otherwise noted by a lowercase “s” indicating a phosphorothioate linkage.
For orientation: Immunoblotting shows a protein as a band on a membrane.

For series [2], the system named is human survivin mRNA. The series is described as follows: IC50 of dsRNA for survivin mRNA, dose response by quantitative RT-PCR ("D"). The format is cell-based. How it is done: Representative parameters that can be studied include, for example, translation of survivin mRNAs or survivin protein synthesis; effect on surrogate markers; or any other parameter that is indicative of potential dsRNA therapeutic effectiveness that can be conveniently measured in vitro.
as §1
Total RNA is isolated using RNeasy® 96 kit according to recommended protocol (Qiagen). Briefly, cells are washed with 200 ul PBS after removal of growth medium. Following washing, 100 μl buffer RLT is added, plate is shaken vigorously for about 20 seconds. To each well 100 μl 70% ethanol are added and mixed by pipetting up and down three times. Samples are then applied into the wells of the RNeasy 96 plate placed in the QIAvac top base of the QIAvac 96 manifold, which is attached to a vacuum source. Vacuum is applied for 30 seconds or until transfer is complete. To each well 80 μl of DNase I incubation mix (20 mM Tris-HCl, pH 8.4, 2 mM MgCl2, 50 mM KCl and 225 Units/ml DNase I from Invitrogen) is added and incubated at room temperature for 30 minutes. Buffer RW1 (1 ml/well) is added and the vacuum is applied for 30 seconds. Buffer RPE (1 ml/well) is added to each well and vacuum is applied for 30 seconds. Washing steps with buffer RW1 and RPE1 are repeated once more. The plate is then removed from the manifold and blotted dry on paper towels. The plate is placed back in the QIAvac manifold and the vacuum is applied for 10 minutes. To elute RNA 30 μl of RNase-free water is added directly onto the membrane of each well, incubated for 1 minutes and vacuum is applied for 30 seconds. In order to maximize the recovery of total RNA the elution step is repeated with additional 30 μl/well RNase-free water.
Quantitation of survivin and GAPDH mRNA levels is determined by real-time quantitative RT-PCR using the ABI PRISM® 7900 Sequence Detection System (Applied Biosystems). RT-PCR reactions are carried out by adding 15 ul of TaqMan One Step PCR Master Mix (Applied Biosystems, #4309169) reagents (containing 100 nM each of forward primer and reverse primer, and 200 nM probe) to 96-well plates with 10 μl total RNA. For human survivin, the forward PCR primer is: 5′[…]3′ (SEQ ID NO: 186), and the reverse primer is: 5′[…]3′ (SEQ ID NO: 187). The survivin TaqMan® probe used is 5′(FAM)[…]3′ (SEQ ID NO: 188) (Biosearch Technologies, Inc.). This primer-probe set, designed to SEQ ID No 14 was used for all experiments in Examples 15 to the end. For human GAPDH, TaqMan GAPDH Control Reagent Kit is used (Applied Biosystems, #402869). The percentage inhibition for each samples are calculated by comparing the survivin/GAPDH mRNA ratio for the sample to survivin/GAPDH mRNA ratio for the untreated control. The IC50 is derived from the non-linear regression analysis of the percentage inhibition data using GraphPad Prism software (GraphPad Software).
The constructs tested comprise the antisense strand in the 5′-3′ orientation, and the sense strand in the 5′ to 3′ orientation, In Table 15, “D” is dose response (mRNA levels) and “W” is Western blot. […]

A short description of series [3]: Stability of siRNA constructs in mouse plasma, capillary gel electrophoresis. The series is classed as in vitro ADME. The method, then: Intact duplex RNA was analyzed from diluted mouse-plasma using an extraction and capillary electrophoresis method similar to those previously described (Leeds, J. M., et al., 1996, Anal. Biochem., 235, 36-43; Geary, R. S., et al., 1999, Anal. Biochem., 274, 241-248. Heparin-treated mouse plasma, from 3-6 month old female Balb/c mice (Charles River Labs) was thawed from −80° C. and diluted to 25% (v/v) with phosphate buffered saline (140 mM NaCl, 3 mM KCl, 2 mM potassium phosphate, 10 mM sodium phosphate). Approximately 10 nmol of pre-annealed siRNA, at a concentration of 100 μM, was added to the 25% plasma and incubated at 37° C. for 0, 15, 30, 45, 60, 120, 180, 240, 360, and 420 minutes. Aliquots were removed at the indicated time, treated with EDTA to a final concentration of 2 mM, and placed on ice at 0° C. until analyzed by capillary gel electrophoresis (Beckman P/ACE MDQ-UV with eCap DNA Capillary tube). The area of the siRNA duplex peak was measured and used to calculate the percent of intact siRNA remaining. Adenosine triphosphate (ATP) was added at a concentration of 2.5 mM to each injection as an internal calibration standard. A zero time point was taken by diluting siRNA in phosphate buffered saline followed by capillary electrophoresis. Percent intact siRNA was plotted against time, allowing the calculation of a pseudo first-order half-life.

Series [4] has as its system human survivin mRNA. As to the kind of experiment: Inhibition of human survivin mRNA expression in HeLa cells, real-time quantitative PCR. The following applies: Table 11, 16 h, averages from two experiments. The format is cell-based. Put shortly:
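HeLa cells in DMEM with 10% FBS treated with antisense oligonucleotides; survivin mRNA quantified by one-step real-time RT-PCR (RT 30 min at 48 °C, 40 two-step cycles) with a FAM/TAMRA probe, GAPDH measured alongside. Percent inhibition read from a standard curve of untreated-control mRNA dilutions.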

Setting [5] is: D (dose response, mRNA levels), HeLa cells, read-out: IC50.

Read-outs that look alike come from different tables or passages of the source. Oligonucleotides are written 5' to 3', each unit as a sugar letter and its base; * is a phosphorothioate linkage, no mark a phosphodiester; rarer units and linkages stand in square brackets, end groups in braces. Plain capitals give the bases only. d = 2'-deoxy (DNA); r = 2'-OH (RNA) A value given as a limit tells only on which side of the number the result lay.

The term IC50 denotes the point on the concentration scale where inhibition reaches its midpoint.

In series [1], “339059_339089 (antisense GCUAUUCUGUGAAUUAACAA; sense UUGUUAAUUCACAGAAUAGC; siRNA; unmodified RNA)” came in with an IC50 of 6.41 nM.
On the same count and under the same terms, then “339063_339093 (antisense AAGGAGUAUCUGCCAGACGC; sense GCGUCUGGCAGAUACUCCUU; siRNA; unmodified RNA)”, with 6.2 nM; and “339044_339074 (antisense AGGGCUGCCAGGCAGGGGGC; sense GCCCCUGCCUGGCAGCCCU; siRNA; listed as RNA, chemistry not fully specified)”, with 5.3 nM.
On to “339066_339096 (antisense AAAGGAUUUAGGCCACUGCC; sense GGCAGUGGCCUAAAUCCUUU; siRNA; unmodified RNA)”, for which the IC50 in series [1] turned out to be 1.72 nM.
As for “339062_339092 (antisense UCCACCUGAAGUUCACCCCG; sense CGGGGUGAACUUCAGGUGGA; siRNA; unmodified RNA)”, the IC50 in series [1] worked out at 65.2 nM; in series [2] (setting [5]) it was 1.8 nM.
On to “339046_339076 (antisense AACCCUGGAAGUGGUGCAGC; sense GCUGCACCACUUCCAGGGUU; siRNA; unmodified RNA)”, for which, in series [1], the IC50 came out at 3.5 nM.
On to “ISIS 355713_355714: blunt-ended siRNA duplex, alternating 2'-O-methyl/2'-fluoro in opposing register: antisense 355713, sense 355714 (antisense UUUGAAAAUGUUGAUCUCC; sense GGAGAUCAACAUUUUCAAA; chemistry not fully specified)”, for which, in series [3] (Table 17, 25% mouse plasma, 37° C., pseudo first-order half-life of intact siRNA duplex), the “Stability (t ½ in hours)” value was above 4 h. The “stability of construct in serum (mouse plasma)” value in series [3] (in words) was “remains relatively unchanged and is stable in serum”. In series [2] (Table 16, cell line not given, read-out: IC50 (nM) mRNA, dsRNA to human survivin), the IC50 amounted to 0.06 nM.
Turning to “339050_339080 (antisense AGAAGCACCUCUGGUGCCAC; sense GUGGCACCAGAGGUGCUUCU; siRNA; unmodified RNA)”, the half-maximal inhibitory concentration (IC50) in series [1] is at least 100 nM.
Still for that read-out and setting: then “339049_339079 (antisense AGCACAGUUGAAACAUCUAA; sense UUAGAUGUUUCAACUGUGCU; siRNA; unmodified RNA)”, with 6.12 nM; and “339057_339087 (antisense CAGGGACUCUGUCUCCAUUC; sense GAAUGGAGACAGAGUCCCUG; siRNA; unmodified RNA)”, with at least 100 nM; and “339064_339094 (antisense UAAUCACACAGCAGUGGCAA; sense UUGCCACUGCUGUGUGAUUA; siRNA; unmodified RNA)”, with 5.45 nM.
“339055_339085 (antisense AGUCCACACUCAGGACUGUG; sense CACAGUCCUGAGUGUGGACU; siRNA; unmodified RNA)” had an IC50 in series [1] of at least 100 nM.
“339048_346294 (antisense AUUUGAAAAUGUUGAUCUCC; sense rA*rGrG*rArG*rArU*rCrA*rArC*rArU*rUrU*rUrC*rArA*rA; siRNA; antisense: unmodified RNA)”: the “Percentage of Inhibition of survivin expression in HeLa cells” value in series [4] (0.2 nM) was determined as 39%; in series [4] (2.0 nM) it was 65%; in series [4] (20.0 nM), 85%. Moreover, in series [2] (setting [5]), the IC50 worked out at 0.24 nM.
“339051_339081 (antisense UCCCUCACUUCUCACCUGGU; sense ACCAGGUGAGAAGUGAGGGA; siRNA; unmodified RNA)” returned an IC50 in series [1] of at least 100 nM.
On the same count and under the same terms, then “339054_339084 (antisense CAACAUGAGGUCCAGACACA; sense UGUGUCUGGACCUCAUGUUG; siRNA; unmodified RNA)”, with at least 100 nM.
“Compound U17: canonical siRNA targeted to human survivin, two deoxythymidines at 3' end of each strand (Table 14) (antisense GGAGAUCAACAUUUUCAAA; sense UUUGAAAAUGUUGAUCUCC; RNA, 3' dTdT, backbone not given here)”: the “activity in Western blot analysis” value in series [1] (in words) is given as “potent activity”. Also, the “activity in quantitative RT-PCR analysis” value in series [2] (in words) is “potent activity”.

The values are drawn from US20070161547A1, “Modulation of survivin expression” (priority 2003, published 2007).
